Laboratory results as given in patent US9987276B2 (Celgene CAR LLC, priority 2008, dated 2018).
Like-named read-outs stand apart in the source and are kept apart here.

Key:
[1] = molecular target: T1, BTK (Homo sapiens (Human), UniProt Q06187); test: BTK Ramos cellular assay (PLCγ2 phosphorylation); type: cell-based; settings: Ramos cells, 1 hour compound, anti-IgM stimulation, p-PLCγ2; read-out: BTK Inhibition (IC50), BTK Ramos cellular inhibition
Experimental: Ramos cells were grown in suspension in T225 flasks, spun down, resuspended in 50 ml serum-free media and incubated for 1 hour. […] Ramos cells were incubated with compound for 1 hour, washed again and resuspended in 100 ul serum-free media. Cells were then stimulated with 1 μg of goat F(ab′)2 Anti-Human IgM and incubated on ice for 10 minutes to activate B cell receptor signaling pathways. After 10 minutes, the cells were washed once with PBS and then lysed on ice with Invitrogen Cell Extraction buffer. 16 μg total protein from lysates were loaded on gel and blots were probed for phosphorylation of the BTK substrate PLCγ2.

[2] = molecular target: T1, BTK; test: Omnia assay for potency assessment against BTK; type: biochemical; settings: [BTK]=5 nM, Omnia assay; read-out: BTK Inhibition (IC50)
Experimental: The modified BTK-optimized reagent conditions for the above protocol are:
[BTK]=5 nM, [ATP]=[…], [Y5-Sox]=[…] (ATP KMapp˜[…]).

[3] = molecular target: EGFR-WT (Homo sapiens (Human), UniProt P00533); test: Omnia assay for potency assessment against EGFR (WT)
[4] = molecular target: ITK (Homo sapiens (Human), UniProt Q08881); test: Omnia assay for potency assessment against active forms of ITK kinase; type: biochemical; settings: [ITK]=10 nM, [ATP]=25, [Y6-Sox]=10 μM; read-out: ITK Inhibition
Experimental: [ITK]=10 nM, [ATP]=25 [Y6-Sox]=10 μM (ATP KMapp=33 μM).

[5] = read-out: EGFR (wild type inhibition), EGFR wild type

ITK, sequence (Q08881 whole entry): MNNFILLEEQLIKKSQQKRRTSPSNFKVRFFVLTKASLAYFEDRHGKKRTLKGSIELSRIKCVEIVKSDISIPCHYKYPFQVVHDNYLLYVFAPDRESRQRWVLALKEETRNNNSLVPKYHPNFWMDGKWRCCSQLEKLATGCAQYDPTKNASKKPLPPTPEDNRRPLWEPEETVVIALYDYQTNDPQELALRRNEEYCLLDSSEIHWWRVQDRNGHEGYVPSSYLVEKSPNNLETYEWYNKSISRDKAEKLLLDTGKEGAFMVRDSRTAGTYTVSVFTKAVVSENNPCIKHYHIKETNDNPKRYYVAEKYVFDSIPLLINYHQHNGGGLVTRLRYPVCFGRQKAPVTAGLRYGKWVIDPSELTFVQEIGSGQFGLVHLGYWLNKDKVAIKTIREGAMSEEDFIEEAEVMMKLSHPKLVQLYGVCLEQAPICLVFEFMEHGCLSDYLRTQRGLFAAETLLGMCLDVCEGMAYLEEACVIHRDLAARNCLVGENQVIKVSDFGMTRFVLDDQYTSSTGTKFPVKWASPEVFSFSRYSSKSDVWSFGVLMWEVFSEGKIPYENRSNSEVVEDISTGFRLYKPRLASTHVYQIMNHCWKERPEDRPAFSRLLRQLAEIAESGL
T1 sequence (Q06187 whole entry): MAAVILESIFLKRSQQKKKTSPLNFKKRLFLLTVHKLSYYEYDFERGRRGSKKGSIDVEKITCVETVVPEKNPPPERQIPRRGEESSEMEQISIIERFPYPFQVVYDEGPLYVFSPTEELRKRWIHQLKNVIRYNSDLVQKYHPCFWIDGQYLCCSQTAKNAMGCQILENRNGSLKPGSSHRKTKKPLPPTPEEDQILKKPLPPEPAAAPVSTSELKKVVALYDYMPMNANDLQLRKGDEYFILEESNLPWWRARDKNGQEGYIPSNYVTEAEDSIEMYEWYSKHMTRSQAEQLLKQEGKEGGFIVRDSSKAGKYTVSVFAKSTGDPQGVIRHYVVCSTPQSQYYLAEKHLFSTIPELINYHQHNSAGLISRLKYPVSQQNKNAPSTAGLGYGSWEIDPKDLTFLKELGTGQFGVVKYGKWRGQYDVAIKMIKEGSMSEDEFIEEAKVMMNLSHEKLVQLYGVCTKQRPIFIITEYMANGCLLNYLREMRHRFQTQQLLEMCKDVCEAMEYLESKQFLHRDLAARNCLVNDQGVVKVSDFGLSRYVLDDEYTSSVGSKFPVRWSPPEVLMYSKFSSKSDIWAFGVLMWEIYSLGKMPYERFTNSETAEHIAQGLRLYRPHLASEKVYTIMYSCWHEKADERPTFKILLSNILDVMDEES
EGFR-WT, sequence (P00533 668-1210): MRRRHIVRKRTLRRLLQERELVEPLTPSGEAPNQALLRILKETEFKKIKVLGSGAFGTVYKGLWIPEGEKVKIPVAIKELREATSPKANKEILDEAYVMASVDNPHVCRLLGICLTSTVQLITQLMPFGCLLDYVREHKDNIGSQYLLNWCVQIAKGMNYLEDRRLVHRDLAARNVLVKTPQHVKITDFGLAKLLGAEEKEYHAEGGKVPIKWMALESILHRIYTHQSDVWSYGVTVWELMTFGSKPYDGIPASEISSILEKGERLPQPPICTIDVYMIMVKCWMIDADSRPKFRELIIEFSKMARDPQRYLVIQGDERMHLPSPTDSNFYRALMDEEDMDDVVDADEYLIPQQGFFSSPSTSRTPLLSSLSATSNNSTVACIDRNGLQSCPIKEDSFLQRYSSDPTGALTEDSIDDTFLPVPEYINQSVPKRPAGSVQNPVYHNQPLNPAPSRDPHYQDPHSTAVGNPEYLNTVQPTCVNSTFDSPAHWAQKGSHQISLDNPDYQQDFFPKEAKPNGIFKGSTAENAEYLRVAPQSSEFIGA

Compound | IC50 [1] [nM] | IC50 [2] [nM] | IC50 [3, 5] [nM] | IC50 [4] [nM] | IC50 [3] [nM]
C=CC(=O)N1CCC[C@@H](Nc2nc(Nc3cccc(Cl)c3)ncc2F)C1 [Compound I-147, (R)-1-(3-(2-(3-chlorophenylamino)-5-fluoropyrimidin-4-ylamino)piperidin-1-yl)prop-2-en-1-one] | 10 to 100 | < 10 | < 10 | < 10 | 
C=CC(=O)N1CCOc2ccc(Nc3nc(Nc4ccc(OCCOC)cc4)ncc3C(C)=O)cc21 [Compound I-150, 1-(6-{5-Acetyl-2-[4-(2-methoxy-ethoxy)-phenylamino]-pyrimidin-4-ylamino}-2,3-dihydro-benzo[1,4]oxazin-4-yl)-propenone] | 10 to 100 | < 10 | < 10 | < 10 | 
C=CC(=O)Nc1cccc(Nc2nc(Nc3ccc4c(cnn4C(=O)OC(C)(C)C)c3)ncc2F)c1 [Compound I-151] | < 10 | < 10 |  | 10 to 100 | 10 to 100
C=CC(=O)Nc1cccc(Nc2nc(Nc3ccc4[nH]ncc4c3)ncc2F)c1 [Compound I-156] | < 10 | < 10 | < 10 | < 10 | 
C=CC(=O)Nc1cccc(Nc2nc(Nc3ccccc3)ncc2C#N)c1 [Compound I-157, N-(3-(5-cyano-2-(phenylamino)pyrimidin-4-ylamino)phenyl)acrylamide] | < 10 | < 10 | < 10 | < 10 | 
C=CC(=O)Nc1cccc(Nc2nc(Nc3cccc(OC)c3)ncc2OC)c1 [Compound I-158, N-(3-(5-methoxy-2-(3-methoxyphenylamino)pyrimidin-4-ylamino)phenyl)acrylamide] | 10 to 100 | < 10 |  | 10 to 100 | 10 to 100
C=CC(=O)Nc1cccc(Oc2nc(Nc3ccc(OC)nc3)ncc2C(=O)Nc2ccccc2)c1 [Compound I-159, 4-(3-acrylamidophenoxy)-2-(6-methoxypyridin-3-ylamino)-pyrimidine-5-carboxylic acid phenylamide] | 100 to 1000 | < 10 | < 10 | 100 to 1000 | 
C=CC(=O)Nc1cccc(Nc2nc(Nc3cccc(S(N)(=O)=O)c3)ncc2F)c1 [Compound I-160, N-(3-(5-fluoro-2-(3-sulfamoylphenylamino)pyrimidin-4-ylamino)phenyl)acrylamide] | 10 to 100 | < 10 | < 10 | < 10 | 
C=CC(=O)N1Cc2ccc(Nc3nc(Nc4ccc(OC)nc4)ncc3F)cc2C1 [Compound I-165, 1-(5-(5-fluoro-2-(6-methoxypyridin-3-ylamino)pyrimidin-4-ylamino)isoindolin-2-yl)prop-2-en-1-one] | 10 to 100 | < 10 |  | < 10 | 100 to 1000
C=CC(=O)N1CCc2ccc(Nc3nc(Nc4ccc(OC)nc4)ncc3F)cc21 [Compound I-166, 1-(6-(5-fluoro-2-(6-methoxypyridin-3-ylamino)pyrimidin-4-ylamino)indolin-1-yl)prop-2-en-1-one] | 10 to 100 | < 10 |  | < 10 | 100 to 1000
C=CC(=O)Nc1cccc(Nc2nc(Nc3ccc(OC)nc3)ncc2C2CC2)c1 [Compound I-167, N-(3-(5-cyclopropyl-2-(6-methoxypyridin-3-ylamino)pyrimidin-4-ylamino)phenyl)acrylamide] | 10 to 100 | < 10 | < 10 | < 10 | 
C=CC(=O)N1CCOc2ccc(Nc3nc(Nc4ccc(N5CCOCC5)nc4)ncc3C(C)=O)cc21 [Compound I-168, 1-{6-[5-Acetyl-2-(6-morpholin-4-yl-pyridin-3-ylamino)-pyrimidin-4-ylamino]-2,3-dihydro-benzo[1,4]oxazin-4-yl}-propenone] | 10 to 100 | < 10 |  | < 10 | 10 to 100
C=CC(=O)N1CCOc2ccc(Nc3nc(Nc4ccc(N5CCOCC5)cc4)ncc3C(C)=O)cc21 [Compound I-169, 1-{6-[5-Acetyl-2-(4-morpholin-4-yl-phenylamino)-pyrimidin-4-ylamino]-2,3-dihydro-benzo[1,4]oxazin-4-yl}-propenone] | < 10 | < 10 | < 10 | < 10 | 
C=CC(=O)Nc1cccc(Nc2nc(Nc3ccc(OC(C)C)nc3)ncc2F)c1 [Compound I-172, N-(3-(5-fluoro-2-(6-isopropoxypyridin-3-ylamino)pyrimidin-4-ylamino)phenyl)acrylamide] | < 10 | < 10 |  | 10 to 100 | 100 to 1000
C=CC(=O)Nc1cccc(Nc2nc(Nc3ccc(OC)nc3)ncc2C#N)c1 [Compound I-173, N-(3-(5-cyano-2-(6-methoxypyridin-3-ylamino)pyrimidin-4-ylamino)phenyl)acrylamide] | < 10 | < 10 | < 10 | < 10 | 
C=CC(=O)Nc1cccc(Nc2nc(Nc3ccc4c(c3)NCCO4)ncc2F)c1 [Compound I-174] | < 10 | < 10 | < 10 | < 10 | 
C=C(C)C(=O)c1ccc(Nc2nc(Nc3ccccc3)ncc2F)cc1 [Compound I-185, 1-(4-(5-fluoro-2-(phenylamino)pyrimidin-4-ylamino)phenyl)-2-methylprop-2-en-1-one] | 100 to 1000 | < 10 |  | < 10 | 10 to 100
C=CC(=O)Nc1cccc(Oc2nc(Nc3ccc(OC)nc3)ncc2C)c1 [Compound I-186, N-(3-(2-(6-methoxypyridin-3-ylamino)-5-methylpyrimidin-4-yloxy)phenyl)acrylamide] | < 10 | < 10 | < 10 | < 10 | 
C=CC(=O)Nc1cccc(Oc2nc(Nc3ccc(OC)nc3)ncc2C(C)=O)c1 [Compound I-188, N-{3-[5-Acetyl-2-(6-methoxy-pyridin-3-ylamino)-pyrimidin-4-yloxy]-phenyl}-acrylamide] | < 10 | < 10 | < 10 | < 10 | 
C=CC(=O)Nc1cccc(Nc2nc(Nc3ccc(OC)nc3)ncc2C(C)=O)c1 [Compound I-189, N-{3-[5-Acetyl-2-(6-methoxy-pyridin-3-ylamino)-pyrimidin-4-ylamino]-phenyl}-acrylamide] | 10 to 100 | < 10 |  | < 10 | 10 to 100
C=CC(=O)N1CCC[C@@H](Oc2nc(Nc3cccc(OC)c3)ncc2F)C1 [Compound I-190, (R)-1-(3-(5-fluoro-2-(3-methoxyphenylamino)pyrimidin-4-yloxy)piperidin-1-yl)prop-2-en-1-one] | 10 to 100 | < 10 |  | 10 to 100 | 100 to 1000
C=CC(=O)Nc1cccc(Nc2nc(Nc3ccc(OC)nc3)ncc2OC)c1 [Compound I-192, N-(3-(5-methoxy-2-(6-methoxypyridin-3-ylamino)pyrimidin-4-ylamino)phenyl)acrylamide] | 10 to 100 | < 10 |  | < 10 | 10 to 100
C=CC(=O)N1CCOc2ccc(Nc3nc(Nc4ccc(OC)nc4)ncc3F)cc21 [Compound I-194, 1-(6-(5-fluoro-2-(6-methoxypyridin-3-ylamino)pyrimidin-4-ylamino)-2H-benzo[b][1,4]oxazin-4(3H)-yl)prop-2-en-1-one] | < 10 | < 10 |  | < 10 | 10 to 100
C=CC(=O)Nc1cccc(Nc2nc(Nc3ccc(OCCCNC(=O)OC(C)(C)C)cc3)ncc2F)c1 [Compound I-198, tert-butyl 3-(4-(4-(3-acrylamidophenylamino)-5-fluoropyrimidin-2-ylamino)phenoxy)propylcarbamate] | < 10 | < 10 | < 10 | 100 to 1000 | 
C=CC(=O)N1CCC(Nc2nc(Nc3cccc(OC)c3)ncc2F)C1 (stereo not shown) [Compound I-201, 1-(3-(5-fluoro-2-(3-methoxyphenylamino)pyrimidin-4-ylamino)pyrrolidin-1-yl)prop-2-en-1-one] | 100 to 1000 | < 10 |  | 100 to 1000 | 10 to 100
C=CC(=O)N1CCC[C@@H](Nc2nc(Nc3ccc(OC)nc3)ncc2F)C1 [Compound I-202, (R)-1-(3-(5-fluoro-2-(6-methoxypyridin-3-ylamino)pyrimidin-4-ylamino)piperidin-1-yl)prop-2-en-1-one] | 100 to 1000 | < 10 |  | 100 to 1000 | 100 to 1000
C=CC(=O)Nc1cccc(Nc2nc(Nc3cccc(OCCCN4CCOCC4)c3)ncc2F)c1 [Compound I-208, N-(3-(5-fluoro-2-(3-(3-morpholinopropoxy)phenylamino)pyrimidin-4-ylamino)phenyl)acrylamide] | 10 to 100 | < 10 |  | 10 to 100 | 10 to 100
C=CC(=O)Nc1cccc(Nc2nc(Nc3ccc(OC)nc3)ncc2C(N)=O)c1 [Compound I-209, 4-(3-acrylamidophenylamino)-2-(6-methoxypyridin-3-ylamino)pyrimidine-5-carboxamide] | 10 to 100 | < 10 |  | < 10 | 10 to 100
